Structures can show the parent of a compound that is named as a salt.
What was measured:
[1] = based on lifetime exposure; cited from earlier work
[2] = HPLC-MS quantification of N-nitroso-varenicline impurity (II) in tablets, after manufacture and after storage/stress; type: physicochemical; conditions: starting material before tablet manufacture
Method: The N-nitroso-varenicline-impurity (II) level in the solid pharmaceutical formulation of the present invention may be detected by high performance liquid chromatography (HPLC) method disclosed in the present invention.
HPLC Method Used for Analyzing N-Nitroso-Varenicline Impurity (II)
The chromatographic separation was carried out using an Acquity UPLC HSS PFP, 2.1×100 mm, 1.8 μm at 35±2° C.
Mobile phase A: 0.05% (v/v) formic acid solution in water.
Mobile phase A is prepared as follows: Dilute with water, 0.5 mL of formic acid in a 1000 mL volumetric flask.
Mobile phase B: Acetonitrile LC-MS grade.
The chromatograph was programmed as follows: initial 2 min isocratic 90% mobile phase A; 2-11 min linear gradient to 50% mobile phase A; 11-16 min isocratic 50% mobile phase A; 16-18 min linear gradient to 90% mobile phase A; 18-23 min isocratic 90% mobile phase A.
The chromatograph was equipped with equipped with a mass detector. The acquisition was made in Single Ion Monitoring. The ion with m/z 241.0 was monitored at 0.8 points/s. The ionization mode was positive electrospray (ESI+), the source temperature was set at 130° C., desolvation gas flow was at 500 L/h and the capillary voltage was set at 3 kV. The cone voltage was set at 20 V for the ion with m/z 241.0. […]
The quantification (μg/g or ppm) of N-nitroso-varenicline impurity (II) in test specimen was performed as follows: […]

| SMILES | intake considered reasonably safe for humans (FDA) [1] | N-nitroso-varenicline impurity (II) content of the varenicline tartrate used as starting material [2] |
| --- | --- | --- |
| O=NN1CC2CC(C1)c1cc3nccnc3cc12 [N-nitroso-varenicline impurity (II)] | up to 37 ng/day |  |
| c1cnc2cc3c(cc2n1)C1CNCC3C1 [varenicline tartrate, 7,8,9,10-tetrahydro-6,10-methano-6H-pyrazino[2,3-h][3]benzazepine] |  | less than 0.4 ppm |
